US8168628B2, “Conjugated psychotropic drugs and uses thereof” (Ramot at Tel-Aviv University Ltd., priority 2001, dated 2012)
Read-outs that look alike come from different tables or passages of the source.

Key:
U-937 = assay: Proliferation test, U-937 cells; assay type: cell-based; conditions: Homo sapiens, linear regression of survival percentage
Procedure: (§1) Cell lines: Human prostate carcinoma (PC-3), human colon carcinoma (HT-29), murine melanoma (B-16) and its drug resistant subclone (B-16 MDR), mouse fibroblasts (3T3), myeloid leukemia (HL 60) and its drug resistant subclone (HL 60 MX2), endometrium cell line (MES SA) and its drug resistant subclone (MES DX5), jurkat T lymphoma and monocyte leukemia (U-937), were used in this study.
(§2) Proliferation of cancer and normal cells: Proliferation was measured by neutral red assay or by a fluorometric assay quantitating DNA content. In the neutral red assay, the neutral red is absorbed by lysosomes, thus causing coloring of living cells. Quantitative analysis is performed by colorimetric assay (ELISA reader at 550 nm). In the fluorometric assay, alamar blue is used as a redox indicator. Alamar blue fluorescence was measured at an excitation wavelength of 544 nm and an emission wavelength of […] (FLUOstar BMG Lab Technologies, Offenburg, Germany).
(§3) The cells were sub-cultured and the tested compounds were added thereto in increasing concentrations. The IC50 values were determined by linear regression of the survival percentage of the cells.

HT-29 = assay: Proliferation test, HT-29 cells; assay type: cell-based; conditions: Homo sapiens, linear regression of survival percentage
Procedure: as §1, §2, §3

HL 60 = assay: Proliferation test, HL 60 cells; assay type: cell-based; conditions: Homo sapiens, linear regression of survival percentage
Procedure: as §1, §2, §3

rats [1] = assay: Behavioral criteria: sedation and mobility score in rats; conditions: score 0-3; for sedation and mobility score, 30 min / sedation and mobility score, 60 min / sedation and mobility score, 90 min / sedation and mobility score, 120 min / sedation and mobility score, 180 min / sedation and mobility score, 240 min: i.p., 5 mg/kg perphenazine, 7.5 mg/kg fluphenazine or equimolar conjugate; for Sedation score: oral, 4-6 hours after treatment
Procedure: The effect of the administration of the tested compound on animals behavior was measured by evaluating the degree of animal sedation and mobility following the treatment described hereinabove, using a score of from 0 to 3. A score of 0 represents active and mobile animals, 1 represents calm and mobile animals, 2 represents calm and immobile animals and 3 represents completely ataxic and non-alert animals.

MES SA = assay: Proliferation test, MES SA cells; assay type: cell-based; conditions: Homo sapiens, linear regression of survival percentage
Procedure: as §1, §2, §3

HL 60 MX2 (MDR) = assay: Proliferation test, HL 60 MX2 (MDR) cells; assay type: cell-based; conditions: Homo sapiens, HL60/MX2; linear regression of survival percentage
Procedure: as §1, §2, §3

MES SA DX5 (MDR) = assay: Proliferation test, MES SA DX5 (MDR) cells; assay type: cell-based; conditions: Homo sapiens, linear regression of survival percentage
Procedure: as §1, §2, §3

PC-3 = assay: Proliferation test, PC-3 cells; assay type: cell-based; conditions: Homo sapiens, linear regression of survival percentage
Procedure: as §1, §2, §3

B16 MDR = assay: Proliferation test, B16 MDR cells; assay type: cell-based, murine; conditions: Mus musculus; linear regression of survival percentage
Procedure: as §1, §2, §3

ICR mice = assay: Acute toxicity in vivo (LD50) in mice; conditions: single intraperitoneal dose, compared with perphenazine (FIG. 21)
Procedure: (§4) Toxicity: In vitro toxicity was determined by measuring the effect of the tested compounds (either known neuroleptics or the chemical conjugates of the invention) on primary cultures of neurons and whole brain neuron and glia cells obtained from the brains of neonatal mice. In vitro toxicity of perphenazine and its chemical conjugate AN 168 was also determined with rat myocytes. Acute toxicity in vivo as determined by the LD50 was evaluated on 2 months old ICR mice following the administration of a single intraperitoneal bolus-dose of drug.
(§5) The in vivo toxicity of perphenazine and AN 167 was evaluated following the intraperitoneal administration of a single dose thereof to mice.

in vivo = conditions: ICR, mouse, in vivo, ip
Procedure: as §4, §5

Normal rat fibroblasts = assay: Proliferation test, normal rat fibroblasts; assay type: cell-based; conditions: Fibroblast, linear regression of survival percentage
Procedure: The primary cultures of rat fibroblasts were obtained from neonatal rats using known procedures.
as §2, §3

Jurkat T lymphoma cells = assay: Proliferation / viability test, Jurkat T lymphoma cells; assay type: cell-based; conditions: Homo sapiens
Procedure: as §1, §2, §3

prolactin = assay: Prolactin blood level in rats (enzyme immunometric assay); assay type: in vivo, rat; conditions: i.p.; measured at 0, 60 and 120 min after treatment
From the text: Prolactin secretion: Typical neuroleptics induce hyperprolactinemia, which is frequently associated with gallactorehea and impaired gonadal and sexual function. The measurement of the circulatory plasma prolactin level was therefore used as a sensitive biochemical marker for the psychotropic activity of the known neuroleptics and the chemical conjugates of the present invention, following intraperitoneal or oral administration thereof. Thus, blood was collected from the punctured eye orbital of rats under ether anesthesia and the assay was performed using Millennia, rat prolactin enzyme immunometric assay-kit (DPC, USA).

B16 = assay: Proliferation test, B16 melanoma cells; assay type: cell-based, murine; conditions: for IC50: Mus musculus, B16, linear regression of survival percentage
Procedure: as §1, §2, §3

rats [2] = assay: Catalepsy in rats, “wall” test
Procedure: (§6) Animals: Young adult male rats (150-230 grams) were purchased from Harlan (Israel). Animals were divided 2-5/cage and housed in controlled conditions in the animal room for a week prior to the experiments. The experiments were conducted with naive animals, in a double blind procedure. In each experiment various treatment groups (about 5-10 animals each) were tested.
(§7) Catalepsy in rats: The manifestation of the extrapyramidal adverse effects induced by typical neuroleptics was evaluated by the appearance of stereotypic cataleptic behavior in rats following the neuroleptic treatment. Catalepsy was determined by two methods: (i) by measuring the time it took an animal hanging on a cage wall to move its hind legs and reach a flat surface (the “wall” test); and (ii) rats were placed on a flat surface with their anterior limbs leaning on a flat bar (5.5 cm height) resembling a piano playing position. Catalepsy was determined by the time it took an animal to descend and reach the flat surface (the “piano” test). The maximum time of follow up was 2 minutes and these measurements were performed hourly and individually for each animal. These tests provide an assessment of central dopamine (DA) blocking activity and are acceptable criteria for extrapyramidal symptoms induced by anti-psychotic drugs [10].
(§8) A control animals group was treated with the vehicle (lactic acid) only.

3T3 = assay: Proliferation test, 3T3 fibroblasts; assay type: cell-based; conditions: Mus musculus, NIH3T3; linear regression of survival percentage
Procedure: as §1, §2, §3

rats [3] = conditions: rat, in vivo, ip, 5 mg/kg
Procedure: as §6, §7, §8

rats [4] = assay: Catalepsy in rats, “piano” test, oral administration; assay type: in vivo, rat; conditions: oral, 10 and 20 mg/kg perphenazine or equimolar doses of conjugate
Procedure: To this end, the induced catalepsy, the prolactin blood levels and the animal behavior were measured as described hereinabove, following oral administration of either AN 168 or perphenazine alone to rats. Animals, divided 5 per cage, were treated by oral administration of perphenazine or AN-168 dissolved in 1% lactic acid. Control animals received vehicle (lactic acid) only.
The catalepsy induced by oral administration of various concentrations of AN 168 and perphenazine was measured by the “wall” test and the “piano” test described hereinabove. The time course of catalepsy was measured 4-24 hours following oral administration of 2.5, 5, 10 and 20 mg/kg perphenazine and respective equimolar doses of 3.5, 7, 14 and 28 mg/kg AN-168. The total catalepsy represents the sum of average catalepsy per treated group during the 4-24 hours of follow-up.

C6 rat glioma cells [5] = assay: DNA fragmentation in C6 rat glioma cells (propidium iodide flow cytometry); assay type: cell-based; conditions: Cisplatin 30 μM; perphenazine 25 and 50 μM; AN 168 25, 50 μM (FIG. 18)
Procedure: Apoptosis and DNA fragmentation: Fragmentation of cell nuclei was studied by flow cytometric analysis of propidium iodide-stained cells. This analysis was performed using a FACScan (Becton Dickinson, Mountain View, Calif.) equipped with an argon ion laser adjusted to an excitation wavelength of 480 nm and with a Doublet Discrimination Module (DDM). Lysis II (Becton Dickinson) software was used for data acquisition. Apoptotic nuclear changes were evaluated according to the criteria of Nicolletti et al..
The DNA fragmentation was determined by the propidium iodide flow cytometric method described hereinabove.

C6 rat glioma cells [6] = assay: Viability of C6 rat glioma cells (neutral red); assay type: cell-based; conditions: Rattus norvegicus, Glioma cell; 24 hours treatment, neutral red, up to 100 μM (FIG. 14)
Procedure: as §2
The cells were sub-cultured and the tested compounds were added thereto in increasing concentrations, up to 100 μM.

rat myocytes = conditions: Wistar, rat
Procedure: as §4

mice = assay: Catalepsy in mice (bar between two cages); assay type: in vivo, mouse; conditions: adult male mice, 1.5 mg/kg perphenazine or equimolar dose (FIG. 7a)
Procedure: Young adult male and female mice were purchased from Harlan, Israel. The animals were housed for 4-7 days under controlled conditions prior to experimentation. Experiments were conducted in a double blind procedure. In each experiment various treatment groups (about 10 animals each) were tested.
Catalepsy in mice: The appearance of stereotypic cataleptic behavior in mice following the neuroleptic treatment was measured in two different sets of experiments.
The catalepsy was determined using a system of two cages and a bar therebetween. The mouse was hung in the middle of the bar, and the percentage of animals reaching the target within 2 minutes was monitored 1 hour, 2 hours and 3 hours following the treatment.
The catalepsy was determined using the system described hereinabove. The mouse was hung in the middle of the bar, and the time it took the animal to reach the target was measured.

[7] = linear regression of survival percentage, read-out: IC50, JURKAT

SMILES	IC50 (U-937) [µM]	IC50 (HT-29) [µM]	IC50 (HL 60) [µM]	sedation and mobility score, 30 min (rats [1])	sedation and mobility score, 60 min (rats [1])	sedation and mobility score, 90 min (rats [1])	sedation and mobility score, 120 min (rats [1])	sedation and mobility score, 180 min (rats [1])	sedation and mobility score, 240 min (rats [1])	IC50 (MES SA) [µM]	IC50 (HL 60 MX2 (MDR)) [µM]	IC50 (MES SA DX5 (MDR)) [µM]	IC50 (PC-3) [µM]	IC50 (B16 MDR) [µM]	LD50 at 2 weeks (in vivo) [mg/kg]	IC50 (Jurkat T lymphoma cells; [7]) [µM]	time at which prolactin blood level peaked (prolactin) [min]	IC50 (B16) [µM]	IC50 (3T3) [µM]	also measured
CCCC(=O)OCCN1CCN(CCCN2c3ccccc3Sc3ccc(Cl)cc32)CC1 [AN-167, Perphenazine Butyrate]	23.3	13.3 ± 2.4	17.3	0	1	1	2	2	2	17.2	19.9	20.9	49.1	41.5 ± 1.8	120	11.4	60	17.3 ± 4.5	21.7	time course of mortality (ICR mice): delayed; IC50 (Normal rat fibroblasts): 31.6 µM; effect on the proliferation of B16 murine melanoma cells (B16; representative experiment (FIG. 13)): relatively active as anti-proliferative drugs; average of total catalepsy as percentage of the perphenazine-induced catalepsy (rats [2]; equimolar doses, four independent experiments (FIG. 6)): lower catalepsy as compared with perphenazine; induced catalepsy, SAR studies (rats [2]; i.p., 5 mg/kg perphenazine and equimolar conjugates, compared with perphenazine (FIG. 2)): significant reduction of the induced catalepsy; total catalepsy (rats [2]; i.p., 5 mg/kg perphenazine and equimolar conjugates, sum of determinations at 0, 60, 120 min (FIG. 1a)): did not induce catalepsy at all; total catalepsy (rats [2]; i.p., 5 mg/kg perphenazine, 7.5 mg/kg fluphenazine, equimolar conjugates, sum 0-420 min, normalized to parent drug (FIG. 3a)): reduced catalepsy significantly; time course of catalepsy (rats [2]; i.p., over a period of 7 hours (FIGS. 4a, 4b)): reduced catalepsy as compared with perphenazine
OCCN1CCN(CCCN2c3ccccc3Sc3ccc(Cl)cc32)CC1 [Perphenazine, perphenazine, reference compound]	21.3	8.85 ± 2.7	19.8	1	2	2	3	2	2	15.3	22.6	16.2	23.1 ± 2.3	18.4 ± 5.4	109	11.3	60	12.5 ± 1.29	26.6	time at which catalepsy peaked (rats [3]; male): 2 h; total catalepsy (rats [3]): catalepsy was induced; muscular rigidity and tachypnea (rats [4]): muscular rigidity and tachypnea were observed; DNA fragmentation (C6 rat glioma cells [5]): induced a dramatically increase in DNA fragmentation; Sedation score (rats [1]; 2.5 mg/kg): 0; Sedation score (rats [1]; 5 mg/kg): 1; Sedation score (rats [1]; 10 mg/kg): 2; Sedation score (rats [1]; 20 mg/kg): 3; IC50 (C6 rat glioma cells [6]): 19.2 µM; decrease in cells viability (rat myocytes): 20%; IC50 (Jurkat T lymphoma cells; alamar blue method (FIG. 15), read-out: IC50, Jurkat T lymphoma cells viability): 16 µM; catalepsy: percentage of animals reaching the target within 2 minutes (mice): higher catalepsy
